In patent US20160011220A1, “Systems and Methods to Quantify Analytes in Keratinized Samples” (PURDUE PHARMA L.P., priority 2012, published 2016):

What was measured:
[1] = Stability of hair levels among individuals on stable doses of opioids, visit 1 vs visit 2 (excluding PRN dose); type: in vivo, human; details: hair level at visit 1 vs hair level at visit 2
Description: The study includes 2 study visits approximately 60 days apart. The second visit allowable range is between 45 and 75 days after the first visit. Patients submit hair and urine samples at both study visits
The enrolled subjects are current, past or new users of prescribed opioid analgesic regimens in either (i) the past 30 days, (ii) the past 31 to 120 days or were not previously prescribed an opioid regimen. All opioid analgesic regimens are self-reported.
E. Assessment of the Stability of Hair Levels Among Individuals on Stable Doses of Opioids (Excluding PRN Dose)
Also shown in Table 1B and the graphs is data from a sub-population of tested subjects, which excluded patients where the start date of the regimen was within the 90 day window of the enrollment date.

[2] = Relationship between prescribed opioid dose and hair levels (excluding PRN dose); type: in vivo, human
[3] = excluding patients whose prescription started less than 90 days before enrollment (n = 361)

In the case of `CN1CC[C@]23c4c5ccc(O)c4O[C@H]2[C@@H](O)C=C[C@H]3[C@H]1C5` [Morphine, morphine], the “R (correlation coefficient)” value ([1]; all interim sample (n = 411)) is reported as 0.789, the R-Squared ([1]; all interim sample (n = 411)) is reported as 0.623 and the “R (correlation coefficient)” value [1, 3] is reported as 0.974. It also gave a R-Squared [1, 3] of 0.949.

For `COc1ccc2c3c1O[C@H]1C(=O)CC[C@H]4[C@@H](C2)N(C)CC[C@]314` [Hydrocodone, hydrocodone], the “R (correlation coefficient)” value ([1]; all interim sample (n = 411)) was 0.880, the R-Squared ([1]; all interim sample (n = 411)) was 0.775 and the “R (correlation coefficient)” value [1, 3] was 0.883. For the same molecule, the R-Squared [1, 3] was 0.781.

In the case of `COc1ccc2c3c1O[C@H]1C(=O)CC[C@@]4(O)[C@@H](C2)N(C)CC[C@]314` [Oxycodone, oxycodone], the “total variation in the hair levels explained by the linear relationship between total daily dose and hair levels (coefficient of determination)” value [2] is reported as “approximately 55%”, the “R (correlation coefficient)” value ([1]; all interim sample (n = 411)) is reported as 0.959 and the R-Squared ([1]; all interim sample (n = 411)) is reported as 0.920. For the same molecule, the “R (correlation coefficient)” value [1, 3] was 0.960 and the R-Squared [1, 3] was 0.922.
